{"source": "patent US20260262652A1", "about": "“INSECT DAMAGE INHIBITOR, METHOD FOR USING RESIN COMPOSITION, CULTIVATION METHOD, POTTING SOIL, AND METHOD FOR IMPROVING SOIL” (ARAKAWA CHEMICAL INDUSTRIES, LTD., priority 2023, published 2026)", "tested_on": "two-spotted spider mites", "assay": "Test 2: spraying onto two-spotted spider mites on kidney bean seedlings, count of mites (pest reproduction inhibition effect)", "type": "in vivo, Tetranychus urticae", "settings": "ten female adults inoculated on kidney bean seedlings, (A1) as 1% solution, average of pots", "experimental": "Ten female adult two-spotted spider mites were inoculated onto ‘Naga-uzura’ kidney bean seedlings (14 days after germination) grown in plastic pots, and an ethanol solution of the component (A1) was further diluted 10-fold with deionized water, and the resulting 1% solution was sprayed onto the spider mites. Two additional pots with similarly grown kidney bean seedlings were prepared. On the 2nd, 4th, 9th, 13th, and 17th days after spraying, the total number of two-spotted spider mites on the adaxial surface, abaxial surface, and true leaves of the kidney beans in each pot was counted, and the average value was calculated. The test was conducted in the same manner for the component (A3)′."}
{"smiles": "CCO", "note": "[(A3)′, ethanol]", "values": [{"measurement": "Number of two-spotted spider mites (Average) Day 2", "setting": "Day 2 after spraying", "value": 9}, {"measurement": "Number of two-spotted spider mites (Average) Day 4", "setting": "Day 4 after spraying", "value": 8}, {"measurement": "Number of two-spotted spider mites (Average) Day 9", "setting": "Day 9 after spraying", "value": 287}, {"measurement": "Number of two-spotted spider mites (Average) Day 13", "setting": "Day 13 after spraying", "value": 564}, {"measurement": "Number of two-spotted spider mites (Average) Day 17", "setting": "Day 17 after spraying", "value": 924}]}
